Measurements as given in ChEMBL document CHEMBL5325456, “5-(4-Hydroxyphenyl)-3H-1,2-dithiole-3-thione derivatives of brefeldin A: Design, synthesis and cytotoxicity in MDA-MB-231 human breast cancer cells” (Bioorg Med Chem, 2023).

Legend:
MDA-MB-231 = assay: Antiproliferative activity against human MDA-MB-231 cells assessed as reduction in cell viability incubated for 48 hrs by CCk-8 assay; format: functional, cell-based; conditions: MDA-MB-231, 48 h
[1] = Antiproliferative activity against human L02 cells assessed as reduction in cell viability incubated for 48 hrs by CCk-8 assay; format: toxicity, cell-based
HeLa = assay: Antiproliferative activity against human HeLa cells assessed as reduction in cell viability incubated for 48 hrs by CCk-8 assay; format: functional, cell-based
HepG2 = assay: Antiproliferative activity against human HepG2 cells assessed as reduction in cell viability incubated for 48 hrs by CCk-8 assay; format: functional, cell-based; conditions: HepG2, 48 h
A549 = assay: Antiproliferative activity against human A549 cells assessed as reduction in cell viability incubated for 48 hrs by CCk-8 assay; format: functional, cell-based; conditions: A549, 48 h
DU-145 = assay: Antiproliferative activity against human DU-145 cells assessed as reduction in cell viability incubated for 48 hrs by CCk-8 assay; format: functional, cell-based; conditions: DU-145, 48 h
A-375 = assay: Antiproliferative activity against human A-375 cells assessed as reduction in cell viability incubated for 48 hrs by CCk-8 assay; format: functional, cell-based; conditions: A-375, 48 h
[2] = Selectivity index, ratio of IC50 for antiproliferative activity against human L02 cells to IC50 for antiproliferative activity against human MDA-MB-231 cells; format: toxicity, cell-based; conditions: L02 cells and MDA-MB-231 cells, read-out: Ratio IC50

SMILES	IC50 (MDA-MB-231)	IC50 (HeLa)	IC50 (HepG2)	IC50 (A549)	IC50 (DU-145)	IC50 (A-375)	IC50 at 48 h [1]	selectivity ratio [2]
Oc1ccc(-c2cc(=S)ss2)cc1	33.2 µM	6.48 µM	13.8 µM	27.6 µM	12.7 µM	> 40 µM	16.8 µM	
C[C@H]1CCC/C=C/[C@@H]2C[C@H](O)C[C@H]2[C@H](OC(=O)CCC(=O)Oc2ccc(-c3cc(=S)ss3)cc2)/C=C/C(=O)O1	1.35 µM	2.35 µM	7.44 µM	3.19 µM	16.1 µM	3.62 µM	8.18 µM	6.06
C[C@H]1CCC/C=C/[C@@H]2C[C@H](O)C[C@H]2[C@H](OC(=O)c2ccccc2C(=O)Oc2ccc(-c3cc(=S)ss3)cc2)/C=C/C(=O)O1	1.34 µM	0.3 µM	7.03 µM	0.33 µM	> 40 µM	1.07 µM	3.55 µM	2.64
C[C@H]1CCC/C=C/[C@@H]2C[C@H](OC(=O)CCC(=O)OCCCCCCOc3ccc(-c4cc(=S)ss4)cc3)C[C@H]2[C@H](OC(=O)CCC(=O)OCCCCCCOc2ccc(-c3cc(=S)ss3)cc2)/C=C/C(=O)O1	> 40 µM	> 40 µM	> 40 µM	> 40 µM	> 40 µM	> 40 µM	> 40 µM	
C[C@H]1CCC/C=C/[C@@H]2C[C@H](OC(=O)CCC(=O)Oc3ccc(-c4cc(=S)ss4)cc3)C[C@H]2[C@H](OC(=O)CCC(=O)Oc2ccc(-c3cc(=S)ss3)cc2)/C=C/C(=O)O1	> 40 µM	> 40 µM	> 40 µM	> 40 µM	> 40 µM	> 40 µM	> 40 µM	
C[C@H]1CCC/C=C/[C@@H]2C[C@H](OC(=O)CCC(=O)OCCOc3ccc(-c4cc(=S)ss4)cc3)C[C@H]2[C@H](O)/C=C/C(=O)O1	> 40 µM	> 40 µM	> 40 µM	> 40 µM	> 40 µM	> 40 µM	> 80 µM	
C[C@H]1CCC/C=C/[C@@H]2C[C@H](O)C[C@H]2[C@H](OC(=O)CCC(=O)OCCOc2ccc(-c3cc(=S)ss3)cc2)/C=C/C(=O)O1	1.19 µM	3.47 µM	4.65 µM	2.73 µM	1.85 µM	1.69 µM	8.3 µM	6.97
C[C@H]1CCC/C=C/[C@@H]2C[C@H](OC(=O)CCC(=O)OCCCCCCOc3ccc(-c4cc(=S)ss4)cc3)C[C@H]2[C@H](O)/C=C/C(=O)O1	> 40 µM	25.2 µM	> 40 µM	> 40 µM	> 40 µM	> 40 µM	> 80 µM	
C[C@H]1CCC/C=C/[C@@H]2C[C@H](OC(=O)CCCC(=O)Oc3ccc(-c4cc(=S)ss4)cc3)C[C@H]2[C@H](OC(=O)CCCC(=O)Oc2ccc(-c3cc(=S)ss3)cc2)/C=C/C(=O)O1	> 40 µM	> 40 µM	> 40 µM	> 40 µM	> 40 µM	> 40 µM	> 40 µM	
C[C@H]1CCC/C=C/[C@@H]2C[C@H](OC(=O)CCC(=O)OCCCCOc3ccc(-c4cc(=S)ss4)cc3)C[C@H]2[C@H](O)/C=C/C(=O)O1	> 40 µM	> 40 µM	> 40 µM	> 40 µM	> 40 µM	> 40 µM	> 80 µM	
CC(=O)O[C@H]1C(=O)[C@@]2(C)[C@H]([C@H](OC(=O)c3ccccc3)[C@]3(O)C[C@H](OC(=O)[C@H](O)[C@@H](NC(=O)c4ccccc4)c4ccccc4)C(C)=C1C3(C)C)[C@]1(OC(C)=O)CO[C@@H]1C[C@@H]2O [PACLITAXEL]	0.33 µM	0.034 µM	0.55 µM	0.014 µM		0.059 µM	0.13 µM	
C[C@H]1CCC/C=C/[C@@H]2C[C@H](OC(=O)CCC(=O)OCCCCOc3ccc(-c4cc(=S)ss4)cc3)C[C@H]2[C@H](OC(=O)CCC(=O)OCCCCOc2ccc(-c3cc(=S)ss3)cc2)/C=C/C(=O)O1	> 40 µM	> 40 µM	> 40 µM	> 40 µM	> 40 µM	> 40 µM	> 40 µM	
C[C@H]1CCC/C=C/[C@@H]2C[C@H](OC(=O)CCCC(=O)OCCCCOc3ccc(-c4cc(=S)ss4)cc3)C[C@H]2[C@H](OC(=O)CCCC(=O)OCCCCOc2ccc(-c3cc(=S)ss3)cc2)/C=C/C(=O)O1	> 40 µM	> 40 µM	> 40 µM	> 40 µM	> 40 µM	> 40 µM	> 40 µM	
C[C@H]1CCC/C=C/[C@@H]2C[C@H](O)C[C@H]2[C@H](OC(=O)c2ccccc2C(=O)OCCCCCCOc2ccc(-c3cc(=S)ss3)cc2)/C=C/C(=O)O1	> 40 µM	> 40 µM	> 40 µM	> 40 µM	> 40 µM	> 40 µM	> 80 µM	

Now from value to molecule, other results behind:

IC50 (MDA-MB-231)	IC50 (HeLa)	IC50 (HepG2)	IC50 (A549)	IC50 (DU-145)	IC50 (A-375)	SMILES	IC50 at 48 h [1]	selectivity ratio [2]
9.65 µM	5.3 µM	18 µM	18.2 µM	19.5 µM	30 µM	C[C@H]1CCC/C=C/[C@@H]2C[C@H](O)C[C@H]2[C@H](OC(=O)CCCC(=O)Oc2ccc(-c3cc(=S)ss3)cc2)/C=C/C(=O)O1	24.8 µM	2.57
> 40 µM	5.68 µM	> 40 µM	> 40 µM	> 40 µM	> 40 µM	C[C@H]1CCC/C=C/[C@@H]2C[C@H](OC(=O)CCC(=O)OCCOc3ccc(-c4cc(=S)ss4)cc3)C[C@H]2[C@H](OC(=O)CCC(=O)OCCOc2ccc(-c3cc(=S)ss3)cc2)/C=C/C(=O)O1	> 40 µM	
> 40 µM	26.9 µM	> 40 µM	> 40 µM	> 40 µM	> 40 µM	C[C@H]1CCC/C=C/[C@@H]2C[C@H](O)C[C@H]2[C@H](OC(=O)c2ccccc2C(=O)OCCCCOc2ccc(-c3cc(=S)ss3)cc2)/C=C/C(=O)O1	> 80 µM	
> 40 µM	> 40 µM	> 40 µM	> 40 µM	> 40 µM	> 40 µM	C[C@H]1CCC/C=C/[C@@H]2C[C@H](O)C[C@H]2[C@H](OC(=O)c2ccccc2C(=O)OCCOc2ccc(-c3cc(=S)ss3)cc2)/C=C/C(=O)O1	> 80 µM	
0.5 µM	0.86 µM	0.72 µM	1.46 µM	0.87 µM	0.83 µM	C[C@H]1CCC/C=C/[C@@H]2C[C@H](O)C[C@H]2[C@H](OC(=O)CCC(=O)OCCCCOc2ccc(-c3cc(=S)ss3)cc2)/C=C/C(=O)O1	1.64 µM	3.28
> 40 µM	> 40 µM	> 40 µM	> 40 µM	> 40 µM	> 40 µM	C[C@H]1CCC/C=C/[C@@H]2C[C@H](OC(=O)c3ccccc3C(=O)OCCCCOc3ccc(-c4cc(=S)ss4)cc3)C[C@H]2[C@H](OC(=O)c2ccccc2C(=O)OCCCCOc2ccc(-c3cc(=S)ss3)cc2)/C=C/C(=O)O1	> 40 µM	
> 40 µM	> 40 µM	> 40 µM	> 40 µM	> 40 µM	> 40 µM	C[C@H]1CCC/C=C/[C@@H]2C[C@H](OC(=O)CCCC(=O)OCCOc3ccc(-c4cc(=S)ss4)cc3)C[C@H]2[C@H](OC(=O)CCCC(=O)OCCOc2ccc(-c3cc(=S)ss3)cc2)/C=C/C(=O)O1	> 40 µM	
> 40 µM	> 40 µM	> 40 µM	> 40 µM	> 40 µM	> 40 µM	C[C@H]1CCC/C=C/[C@@H]2C[C@H](OC(=O)c3ccccc3C(=O)OCCOc3ccc(-c4cc(=S)ss4)cc3)C[C@H]2[C@H](OC(=O)c2ccccc2C(=O)OCCOc2ccc(-c3cc(=S)ss3)cc2)/C=C/C(=O)O1	> 40 µM	
> 40 µM	> 40 µM	> 40 µM	> 40 µM	> 40 µM	> 40 µM	C[C@H]1CCC/C=C/[C@@H]2C[C@H](OC(=O)CCCC(=O)OCCCCCCOc3ccc(-c4cc(=S)ss4)cc3)C[C@H]2[C@H](OC(=O)CCCC(=O)OCCCCCCOc2ccc(-c3cc(=S)ss3)cc2)/C=C/C(=O)O1	> 40 µM	
> 40 µM	> 40 µM	> 40 µM	> 40 µM	> 40 µM	> 40 µM	C[C@H]1CCC/C=C/[C@@H]2C[C@H](OC(=O)c3ccccc3C(=O)OCCCCCCOc3ccc(-c4cc(=S)ss4)cc3)C[C@H]2[C@H](OC(=O)c2ccccc2C(=O)OCCCCCCOc2ccc(-c3cc(=S)ss3)cc2)/C=C/C(=O)O1	> 40 µM	
> 40 µM	> 40 µM	> 40 µM	> 40 µM	> 40 µM	> 40 µM	C[C@H]1CCC/C=C/[C@@H]2C[C@H](OC(=O)c3ccccc3C(=O)Oc3ccc(-c4cc(=S)ss4)cc3)C[C@H]2[C@H](OC(=O)c2ccccc2C(=O)Oc2ccc(-c3cc(=S)ss3)cc2)/C=C/C(=O)O1	> 40 µM	
